Experimental data taken from patent US7501430B2 (ArQule, Inc., priority 2006, dated 2009).

Columns and labels:
[1] = test system: DLD1 human colon cancer cell line (K-ras G13D); test: MTS cell growth assay, DLD1; assay type: cell-based; details: DLD-1, DLD1 cells, 72 hours, read-out: IC50 DLD1 KRAS (G13D)
From the text: (§1) Compounds of the present invention have been tested for activity against a variety of cancer cell lines. The ability of compounds to inhibit cell growth in this assay is correlated with the reduction of dehydrogenase enzyme activity found in metabolically active cells.
(§2) Materials: A375 (a human melanoma cell line that harbors the B-RAF mutation V600E), Colo-205 (a human colon cancer cell line that harbors the B-RAF mutation V600E), DLD1 (a human colon cancer cell line that harbors the K-ras mutation G13D), SK-MEL-2 (a human melanoma cell line that harbors the N-ras mutation Q61R), SK-MEL-28 (a human melanoma cell line that harbors the B-RAF mutation V600E), and SW480 (a human colon cancer cell line that harbors the K-ras mutation G12V) cells from ATCC were maintained at 37° C., 5% CO2 in DMEM media supplemented with 10% fetal bovine serum, penicillin/streptomycin and fungizone (Invitrogen). NCM460 (Incell), a normal colon epithelial cell line, and human mammary epithelial cells (Cambrex) were maintained at 37° C., 5% CO2 in DMEM and HEBM media (Cambrex), respectively.
(§3) Methods: Test compounds were dissolved and diluted to 300× in DMSO then diluted 1:40 in DMEM. Cells were seeded into 96-well tissue culture plates at 2-5×10^3 per well and cultured at 37° C. for 24 h. Cells were incubated with test compounds for 72 hours followed by incubation with tetrazolium compound (3-(4,5-dimethylthiazol-2-yl)-5-(3-carboxymethoxyphenyl)-2-(4-sulfophenyl)-2H-tetrazolium, inner salt; MTS) and the electron coupling reagent, phenazine methosulfate (PMS) for 4 hr. […] The measurement of the absorbance of the formazan was assessed using an ENVISION™ (Perkin Elmer) microplate reader at 492 nm. The calculated IC50 value is the concentration of the test compound that causes a 50% decrease in the absorbance.

[2] = test system: human mammary epithelial cells (HMEC, normal); test: MTS cell growth assay, HMEC; assay type: cell-based; details: 72 hours
From the text: as §1, §2, §3

[3] = test system: SW480 human colon cancer cell line (K-ras G12V); test: MTS cell growth assay, SW480; assay type: cell-based; details: SW480 cells, 72 hours, read-out: IC50 SW480 KRAS (G12V)
From the text: as §1, §2, §3

[4] = test system: SK-MEL-2 human melanoma cell line (N-ras Q61R); test: MTS cell growth assay, SK-MEL-2; assay type: cell-based; details: SKMEL2 cells, 72 hours, read-out: IC50 SKMEL2 NRAS (Q61R)
From the text: as §1, §2, §3

[5] = test system: A375 human melanoma cell line (B-RAF V600E); test: MTS cell growth assay, A375; assay type: cell-based; details: A-375, A375 cells, 72 hours
From the text: as §1, §2, §3

[6] = test system: NCM460 normal colon epithelial cell line; test: MTS cell growth assay, NCM460; assay type: cell-based; details: Homo sapiens, NCM460 normal cells, 72 hours
From the text: as §1, §2, §3

[7] = test system: SK-MEL-28 human melanoma cell line (B-RAF V600E); test: MTS cell growth assay, SK-MEL-28; assay type: cell-based; details: SKMEL28 cells, 72 hours
From the text: as §1, §2, §3

[8] = test system: Colo-205 human colon cancer cell line (B-RAF V600E); test: MTS cell growth assay, Colo-205; assay type: cell-based; details: Colo205 cells, 72 hours
From the text: as §1, §2, §3

mutant B-RAF = biological target: T1, mutant B-RAF (Homo sapiens, UniProt P15056, V600E); test: RAF biochemical assay (MEK-1 phosphorylation, anti-phospho MEK1/2 detection); details: read-out: Mutant B-RAF IC50
T1 construct: purchased Upstate (Charlottesville, Va.)
T1 sequence (P15056 whole entry V600E): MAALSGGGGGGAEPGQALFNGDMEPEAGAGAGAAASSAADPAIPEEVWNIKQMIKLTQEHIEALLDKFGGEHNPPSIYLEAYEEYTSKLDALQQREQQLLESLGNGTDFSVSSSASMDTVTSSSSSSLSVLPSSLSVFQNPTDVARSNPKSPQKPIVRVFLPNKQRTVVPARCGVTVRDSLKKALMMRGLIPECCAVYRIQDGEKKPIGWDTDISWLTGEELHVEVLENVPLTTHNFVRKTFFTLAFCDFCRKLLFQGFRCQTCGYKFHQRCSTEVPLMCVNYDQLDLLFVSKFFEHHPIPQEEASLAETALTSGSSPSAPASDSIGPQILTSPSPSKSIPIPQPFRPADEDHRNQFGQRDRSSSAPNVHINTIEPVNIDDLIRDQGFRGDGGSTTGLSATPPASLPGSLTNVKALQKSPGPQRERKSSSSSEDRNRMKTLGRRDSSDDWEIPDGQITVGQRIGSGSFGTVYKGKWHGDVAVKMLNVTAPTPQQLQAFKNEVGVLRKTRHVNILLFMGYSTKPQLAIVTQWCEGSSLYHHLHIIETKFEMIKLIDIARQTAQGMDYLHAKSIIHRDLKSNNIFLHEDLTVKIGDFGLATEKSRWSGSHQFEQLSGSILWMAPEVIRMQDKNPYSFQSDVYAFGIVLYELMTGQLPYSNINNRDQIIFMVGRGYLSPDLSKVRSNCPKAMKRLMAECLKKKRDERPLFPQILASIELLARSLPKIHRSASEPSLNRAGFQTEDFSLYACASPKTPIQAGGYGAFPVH
In short: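 Detection is by ELISA: after a 30 min room-temperature reaction, plate-captured GST-MEK-1 is probed with anti-phospho MEK1/2, then an AP-tagged secondary antibody with fluorescent Attophos read-out.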

Row | IC50 [1] | IC50 [3] | IC50 [4] | IC50 [5] | IC50 [7] | IC50 [8] | IC50 (mutant B-RAF) | Compound | IC50 [2] | IC50 [6]
1 | 4.03 µM | 4.4 µM | 1.33 µM | 0.37 µM | 0.8 µM | 0.36 µM | 0.009 µM | CCNC(=O)N1CCC(Nc2nccc(-c3c(-c4cccc(O)c4)nc4sccn34)n2)CC1 [Example 268, N-ethyl-4-({4-[6-(3-hydroxyphenyl)imidazo[2,1-b][1,3]thiazol-5-yl]pyrimidin-2-yl}amino)piperidine-1-carboxamide] | 0.72 µM | 2.54 µM
2 | 3.08 µM | 2.97 µM | 0.99 µM | 0.15 µM | 0.67 µM | 0.18 µM | > 10 µM | O=C(c1ccc(F)cc1)N1CCC(Nc2nccc(-c3c(-c4ccc(F)cc4)nc4sccn34)n2)CC1 [Example 289, N-[1-(4-fluorobenzoyl)piperidin-4-yl]-4-[6-(4-fluorophenyl)imidazo[2,1-b][1,3]thiazol-5-yl]pyrimidin-2-amine] | 1.24 µM | 4.17 µM
3 | 3.33 µM | 2.74 µM | 0.91 µM | 0.27 µM | 0.86 µM | 0.33 µM | > 5 µM | COc1cccc(-c2nc3sccn3c2-c2ccnc(N[C@@H]3CCCN(C(=O)c4ccncc4)C3)n2)c1 [Example 112, N-[(3R)-1-isonicotinoylpiper-idin-3-yl]-4-[6-(3-methoxyphenyl)imidazo[2,1-b][1,3]thiazol-5-yl]pyrimidin-2-amine] | 2.24 µM | 4.71 µM
